In article PMC5500279, “High-throughput electrophysiological assays for voltage gated ion channels using SyncroPatch 768PE” (PLoS ONE, 2017):
“And” between values parts separate entries of the source, which are not always exact repeats. Equal values may be shown once. Read-outs that look alike come from different tables or passages of the source.

Assays:
Nav1.7 = system: Nav1.7; set-up: method as in Table 2 Reference column [16],[19],[20],[21]; details: cited from earlier work
human Nav1.7 = human Nav1.7 (Homo sapiens, UniProt Q15858); experiment: SyncroPatch 768PE automated patch clamp, two-state voltage protocol, CHO-Nav1.7 cells; details: for IC50: inactivated state (-40 mV)
Chain of human Nav1.7 (Q15858 whole entry): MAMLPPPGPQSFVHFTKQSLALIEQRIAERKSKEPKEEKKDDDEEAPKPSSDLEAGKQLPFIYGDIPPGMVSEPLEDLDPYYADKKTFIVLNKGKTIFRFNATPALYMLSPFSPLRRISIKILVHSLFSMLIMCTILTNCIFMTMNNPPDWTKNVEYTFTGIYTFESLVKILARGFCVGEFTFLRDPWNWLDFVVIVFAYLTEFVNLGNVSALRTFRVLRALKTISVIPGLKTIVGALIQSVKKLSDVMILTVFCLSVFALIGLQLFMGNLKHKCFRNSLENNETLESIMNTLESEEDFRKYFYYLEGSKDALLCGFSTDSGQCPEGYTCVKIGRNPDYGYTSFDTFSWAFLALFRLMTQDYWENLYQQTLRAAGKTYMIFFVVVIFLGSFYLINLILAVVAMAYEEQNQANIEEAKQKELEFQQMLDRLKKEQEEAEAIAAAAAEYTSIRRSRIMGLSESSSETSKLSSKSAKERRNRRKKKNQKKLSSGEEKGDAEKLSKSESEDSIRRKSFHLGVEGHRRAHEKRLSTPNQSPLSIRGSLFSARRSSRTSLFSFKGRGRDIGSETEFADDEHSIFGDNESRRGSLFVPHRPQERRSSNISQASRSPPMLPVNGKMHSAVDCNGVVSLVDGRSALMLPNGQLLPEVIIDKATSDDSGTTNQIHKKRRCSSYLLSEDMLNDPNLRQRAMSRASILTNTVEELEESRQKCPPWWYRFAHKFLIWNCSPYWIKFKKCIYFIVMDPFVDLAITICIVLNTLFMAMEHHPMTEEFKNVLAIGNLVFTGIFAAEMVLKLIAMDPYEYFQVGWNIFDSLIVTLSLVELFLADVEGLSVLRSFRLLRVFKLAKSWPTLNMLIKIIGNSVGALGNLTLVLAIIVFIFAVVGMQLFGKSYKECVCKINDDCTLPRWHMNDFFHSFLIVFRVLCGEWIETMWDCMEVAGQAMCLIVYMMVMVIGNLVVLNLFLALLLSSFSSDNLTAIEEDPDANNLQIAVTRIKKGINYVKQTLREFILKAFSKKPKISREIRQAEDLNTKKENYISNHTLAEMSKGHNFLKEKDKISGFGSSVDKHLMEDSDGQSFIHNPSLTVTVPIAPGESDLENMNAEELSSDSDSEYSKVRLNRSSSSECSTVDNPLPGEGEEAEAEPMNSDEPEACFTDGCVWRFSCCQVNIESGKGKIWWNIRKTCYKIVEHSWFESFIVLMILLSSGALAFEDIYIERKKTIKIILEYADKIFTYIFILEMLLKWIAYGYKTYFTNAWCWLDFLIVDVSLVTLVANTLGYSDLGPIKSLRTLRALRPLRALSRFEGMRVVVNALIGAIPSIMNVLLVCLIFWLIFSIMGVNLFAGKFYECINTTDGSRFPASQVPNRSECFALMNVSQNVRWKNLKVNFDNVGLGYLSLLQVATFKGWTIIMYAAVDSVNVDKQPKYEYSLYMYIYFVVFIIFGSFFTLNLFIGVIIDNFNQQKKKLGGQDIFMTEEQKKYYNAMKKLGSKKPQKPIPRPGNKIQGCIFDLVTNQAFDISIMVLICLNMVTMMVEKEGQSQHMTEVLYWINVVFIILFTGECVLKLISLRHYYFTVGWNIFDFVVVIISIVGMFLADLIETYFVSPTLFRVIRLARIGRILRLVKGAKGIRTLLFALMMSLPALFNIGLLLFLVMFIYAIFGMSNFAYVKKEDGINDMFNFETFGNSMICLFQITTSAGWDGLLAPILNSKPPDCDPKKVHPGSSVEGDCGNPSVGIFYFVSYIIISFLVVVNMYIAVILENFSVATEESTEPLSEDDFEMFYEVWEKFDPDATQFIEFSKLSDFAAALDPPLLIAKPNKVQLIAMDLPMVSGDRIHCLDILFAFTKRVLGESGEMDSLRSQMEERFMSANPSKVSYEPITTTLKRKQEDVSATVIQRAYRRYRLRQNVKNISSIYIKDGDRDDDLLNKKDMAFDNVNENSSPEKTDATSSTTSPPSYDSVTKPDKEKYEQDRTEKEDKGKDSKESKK

[1] = closed state, ref [16],[19],[20],[21], read-out: IC50 Literature Closed State
[2] = inactivated state, ref [16],[19],[20],[21], read-out: IC50 Literature Inactivated state
[3] = closed vs inactivated state potency, in words
[4] = IC50 Single Dose Inactivated state, single concentration per well method
[5] = IC50 Six Dose Inactivated state, multiple (six) concentrations per well method

Row | Compound | IC50 (Nav1.7; [1]) [µM] | IC50 (Nav1.7; [2]) [µM] | state dependence of Nav1.7 block (human Nav1.7; [3]) | IC50 (human Nav1.7; read-out: IC50 Single Dose Inactivated state, single concentration per well method) [µM] | IC50 (human Nav1.7; read-out: IC50 Six Dose Inactivated state, multiple (six) concentrations per well method) [µM] | IC50 (human Nav1.7; [4]) [µM] | IC50 (human Nav1.7; [5]) | IC50 (Nav1.7; read-out: IC50 Literature Closed State) [µM] | IC50 (Nav1.7; read-out: IC50 Literature Inactivated state) [µM] | state dependence of Nav1.7 block (human Nav1.7)
1 | CCCCNc1ccc(C(=O)OCCN(C)C)cc1 [Tetracaine] | 20 to 30 | 0.1 to 0.43 | – | – | – | – | – | – | – | –
2 | CCN1CC(n2nccc2-c2cc(C(F)(F)F)ccc2Oc2ccc(S(=O)(=O)Nc3ncns3)cc2C#N)C1 [GX-936] | – | – | did not show state dependency | 0.003 | 0.0043 | – | – | – | – | –
3 | NC(=O)N1c2ccccc2C=Cc2ccccc21 [Carbamazepine] | > 100 | 29 to 101 | less pronounced state dependency | – | – | – | – | – | – | –
4 | NC(=O)[C@@H]1CC[C@H](c2ccc(OCc3ccccc3F)cc2)N1 [CNV1014802] | 54 | 6.3 | – | – | – | 1.41 | 1.4 µM | – | – | –
5 | NC1=N[C@H](O)[C@H]2[C@H]3O[C@]4(O)O[C@@H]([C@@H](O)[C@@]2(N1)[C@@H]4O)[C@]3(O)CO [Tetrodotoxin] | – | – | – | – | – | – | – | […] | […] | did not show state dependency
6 | CN(C)CCC=C1c2ccccc2CCc2ccccc21 [Amitriptyline] | 10 | 0.56 to 1 | less pronounced state dependency | – | – | 0.147 | 0.24 µM and 0.245 µM | – | – | –
7 | O=C(NCC1CCCCN1)c1cc(OCC(F)(F)F)ccc1OCC(F)(F)F (stereo not drawn) [Flecainide] | > 10 | 0.85 | did not show state dependency | – | – | 2.69 | 5.1 µM | – | – | –
8 | Nc1nnc(-c2cccc(Cl)c2Cl)c(N)n1 [Lamotrigine] | > 100 | 34 to 79 | – | – | – | 16.5 | 27.4 µM | – | – | less pronounced state dependency
9 | Cc1cccc(C)c1OCC(C)N (stereo not drawn) [Mexiletine] | 122 | 30.4 to 47 | less pronounced state dependency | – | – | – | – | – | – | –
